Earlier results on one compound are cited in PMC12679585, “Design, synthesis, and characterization of novel 5-ethylsulfonyl-indazole-3-carboxamides as dual VEGFR-2 and EGFR inhibitors: apoptotic antiproliferative and immunomodulatory evaluations” (RSC Advances, 2025).

Usually IC50 stands for the concentration that gives 50% inhibition.

This data set concerns the target EGFR (Homo sapiens, UniProt P00533). On the set-up: 645–1186; His6 (N); made in house; host or cells: Sf-9 insect cells (baculovirus; vectors pBlueBacHis2B and pFASTBacHTc); method as in PMID 35667253. Conditions: cited from earlier work.

Chain of EGFR (P00533 669-1210): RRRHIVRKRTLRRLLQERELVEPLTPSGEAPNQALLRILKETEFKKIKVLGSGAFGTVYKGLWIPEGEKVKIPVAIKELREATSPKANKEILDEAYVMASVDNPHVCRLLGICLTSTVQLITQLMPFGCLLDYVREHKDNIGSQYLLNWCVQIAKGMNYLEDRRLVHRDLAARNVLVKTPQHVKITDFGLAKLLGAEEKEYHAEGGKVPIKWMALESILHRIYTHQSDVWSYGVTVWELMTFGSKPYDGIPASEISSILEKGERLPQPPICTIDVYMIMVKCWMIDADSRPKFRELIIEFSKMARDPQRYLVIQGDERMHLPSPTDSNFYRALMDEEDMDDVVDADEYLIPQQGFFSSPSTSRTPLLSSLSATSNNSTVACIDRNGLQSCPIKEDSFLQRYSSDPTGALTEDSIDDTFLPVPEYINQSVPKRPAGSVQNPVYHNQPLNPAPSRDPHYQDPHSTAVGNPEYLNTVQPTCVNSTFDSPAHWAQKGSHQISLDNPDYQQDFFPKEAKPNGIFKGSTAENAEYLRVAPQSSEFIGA

`CC(=O)Nc1ccc(/C(N)=N/OC(=O)c2ccc3cn[nH]c3c2)cc1` [Compound XIII]: the IC50 was 85 ± 5 nM.
